According to patent publication US20030105595A1, “Chi square tests for gene expression” (priority 2001, published 2003):

Assays:
Assay in all cases: multi-sample expression analysis, band intensity
Assay type in all cases: in vivo
Conditions in all cases: Pooled
[1] = test system: band b1i0_69.4
Source text: (§1) To practice the invention, one skilled in the art obtains a source of biological samples, as well as expression information about the biological samples, i.e., expression information relative to one or more genes or polypeptides encoded therein. Data is collected for a particular phenotype appearing within a given population under study, whereby expression of that phenotype is to be determined within the biological sample under study. The phenotype is correlated to a specific genotype, which is then represented as a band with a given intentity, thus indicative of gene expression levels, and is then compared to control samples. Alternatively, the response of a gene to dosage with one or more drugs is determined by band intensity. The standard deviation from the mean (StdDev) is calculated for the control samples, and is fit to functional form in the following equation: […]
(§2) A multi-sample expression analysis was run using the program described in Example 1. For each drug run, only runs for genes producing bands with a p-value<10^−5 in at least 2 of the following 3 comparisons were selected: low dose versus vehicle, high dose versus vehicle and low dose versus high dose. […] Since clusters found using all 13K bands included some of the best 2K bands, it was concluded that no essential signal was lost (see FIGS. 3 and 4). […] A comparison using the same analytic tests on only the best 2K bands. It can be seen that the Chi Square metric provides a better distinction between low and high doses than the correlation metric, which is not able to distinguish between the low dose and the high dose (see FIG. 6). The low-dose/high dose statistical variation is more pronounced when only the best 2K bands are selected.

[2] = test system: band b1i0_51.7
Source text: as §1, §2

[3] = test system: band b1i0_54.5
Source text: as §1, §2

[4] = test system: band b1i0_53.0
Source text: as §1, §2

[5] = test system: band b1i0_63.7
Source text: as §1, §2

[6] = test system: band b1i0_60.7
Source text: as §1, §2

[7] = test system: band b1i0_62.5
Source text: as §1, §2

[8] = test system: band b1i0_57.4
Source text: as §1, §2

**Q.** Which “band intensity b1i0_69.4” value ([1]; High dose, 1d) does the source give for `S=C=Nc1cccc2ccccc12` [ANIT] here?
**A.** 208.6

**Q.** What about the “band intensity b1i0_69.4” value ([1]; High dose, 3d) of the same compound?
**A.** 284.1

**Q.** And the “band intensity b1i0_69.4” value ([1]; High dose, 7d)?
**A.** 271.2

**Q.** What about the “band intensity b1i0_69.4” value ([1]; Low dose, 1d) of the same compound?
**A.** 276.3

**Q.** What about the “band intensity b1i0_69.4” value ([1]; Low dose, 3d) of the same compound?
**A.** 370.5

**Q.** What about the “band intensity b1i0_69.4” value ([1]; Low dose, 7d) of the same compound?
**A.** 305.4

**Q.** And the “band intensity b1i0_69.4” value ([1]; Low dose, 14d)?
**A.** 748.9

**Q.** What about the “band intensity b1i0_51.7” value ([2]; High dose, 1d) of the same compound?
**A.** 23.54

**Q.** And the “band intensity b1i0_51.7” value ([2]; High dose, 3d)?
**A.** 30.1

**Q.** And the “band intensity b1i0_51.7” value ([2]; High dose, 7d)?
**A.** 21.57

**Q.** And the “band intensity b1i0_51.7” value ([2]; Low dose, 1d)?
**A.** 30.7

**Q.** And the “band intensity b1i0_51.7” value ([2]; Low dose, 3d)?
**A.** 22.37

**Q.** What about the “band intensity b1i0_51.7” value ([2]; Low dose, 7d) of the same compound?
**A.** 20.67

**Q.** What about the “band intensity b1i0_51.7” value ([2]; Low dose, 14d) of the same compound?
**A.** 82

**Q.** And the “band intensity b1i0_54.5” value ([3]; High dose, 1d)?
**A.** 102.2

**Q.** And the “band intensity b1i0_54.5” value ([3]; High dose, 3d)?
**A.** 114.2

**Q.** What about the “band intensity b1i0_54.5” value ([3]; High dose, 7d) of the same compound?
**A.** 95.67

**Q.** What about the “band intensity b1i0_54.5” value ([3]; Low dose, 1d) of the same compound?
**A.** 105.3

**Q.** What about the “band intensity b1i0_54.5” value ([3]; Low dose, 3d) of the same compound?
**A.** 111.3

**Q.** What about the “band intensity b1i0_54.5” value ([3]; Low dose, 7d) of the same compound?
**A.** 88.17

**Q.** And the “band intensity b1i0_54.5” value ([3]; Low dose, 14d)?
**A.** 33.49

**Q.** And the “band intensity b1i0_53.0” value ([4]; High dose, 1d)?
**A.** 99.5

**Q.** What about the “band intensity b1i0_53.0” value ([4]; High dose, 3d) of the same compound?
**A.** 84.16

**Q.** What about the “band intensity b1i0_53.0” value ([4]; High dose, 7d) of the same compound?
**A.** 106.3

**Q.** What about the “band intensity b1i0_53.0” value ([4]; Low dose, 1d) of the same compound?
**A.** 121.8

**Q.** And the “band intensity b1i0_53.0” value ([4]; Low dose, 3d)?
**A.** 45.02

**Q.** What about the “band intensity b1i0_53.0” value ([4]; Low dose, 7d) of the same compound?
**A.** 108.1

**Q.** And the “band intensity b1i0_53.0” value ([4]; Low dose, 14d)?
**A.** 54.67

**Q.** And the “band intensity b1i0_63.7” value ([5]; High dose, 1d)?
**A.** 50.09

**Q.** And the “band intensity b1i0_63.7” value ([5]; High dose, 3d)?
**A.** 0.01399

**Q.** And the “band intensity b1i0_63.7” value ([5]; High dose, 7d)?
**A.** 147.9

**Q.** And the “band intensity b1i0_63.7” value ([5]; Low dose, 1d)?
**A.** 170.6

**Q.** What about the “band intensity b1i0_63.7” value ([5]; Low dose, 3d) of the same compound?
**A.** 7.245

**Q.** What about the “band intensity b1i0_63.7” value ([5]; Low dose, 7d) of the same compound?
**A.** 299.4

**Q.** What about the “band intensity b1i0_63.7” value ([5]; Low dose, 14d) of the same compound?
**A.** 9.845

**Q.** What about the “band intensity b1i0_60.7” value ([6]; High dose, 1d) of the same compound?
**A.** 74.32

**Q.** And the “band intensity b1i0_60.7” value ([6]; High dose, 3d)?
**A.** 74.89

**Q.** And the “band intensity b1i0_60.7” value ([6]; High dose, 7d)?
**A.** 72.63

**Q.** What about the “band intensity b1i0_60.7” value ([6]; Low dose, 1d) of the same compound?
**A.** 87.08

**Q.** What about the “band intensity b1i0_60.7” value ([6]; Low dose, 3d) of the same compound?
**A.** 67.38

**Q.** What about the “band intensity b1i0_60.7” value ([6]; Low dose, 7d) of the same compound?
**A.** 75.42

**Q.** And the “band intensity b1i0_60.7” value ([6]; Low dose, 14d)?
**A.** 141.7

**Q.** What about the “band intensity b1i0_62.5” value ([7]; High dose, 1d) of the same compound?
**A.** 49.33

**Q.** What about the “band intensity b1i0_62.5” value ([7]; High dose, 3d) of the same compound?
**A.** 93.56

**Q.** What about the “band intensity b1i0_62.5” value ([7]; High dose, 7d) of the same compound?
**A.** 81.4

**Q.** And the “band intensity b1i0_62.5” value ([7]; Low dose, 1d)?
**A.** 68.44

**Q.** What about the “band intensity b1i0_62.5” value ([7]; Low dose, 3d) of the same compound?
**A.** 104.9

**Q.** And the “band intensity b1i0_62.5” value ([7]; Low dose, 7d)?
**A.** 91.61

**Q.** And the “band intensity b1i0_62.5” value ([7]; Low dose, 14d)?
**A.** 249.3

**Q.** And the “band intensity b1i0_57.4” value ([8]; High dose, 1d)?
**A.** 1272

**Q.** And the “band intensity b1i0_57.4” value ([8]; High dose, 3d)?
**A.** 712.4

**Q.** What about the “band intensity b1i0_57.4” value ([8]; High dose, 7d) of the same compound?
**A.** 685.8

**Q.** And the “band intensity b1i0_57.4” value ([8]; Low dose, 1d)?
**A.** 1209.0048

**Q.** And the “band intensity b1i0_57.4” value ([8]; Low dose, 3d)?
**A.** 1266

**Q.** And the “band intensity b1i0_57.4” value ([8]; Low dose, 7d)?
**A.** 1303

**Q.** What about the “band intensity b1i0_57.4” value ([8]; Low dose, 14d) of the same compound?
**A.** 810.7

**Q.** What does the source list for `O=NN(CCCl)C(=O)NCCCl` [BCNU]?
**A.** band intensity b1i0_69.4 ([1]; High dose, 1d): 194.3; band intensity b1i0_69.4 ([1]; High dose, 3d): 219.1; band intensity b1i0_69.4 ([1]; Low dose, 1d): 254; band intensity b1i0_69.4 ([1]; Low dose, 3d): 292.1; band intensity b1i0_69.4 ([1]; Low dose, 7d): 325.1; band intensity b1i0_51.7 ([2]; High dose, 1d): 29.61; band intensity b1i0_51.7 ([2]; High dose, 3d): 30.97; band intensity b1i0_51.7 ([2]; Low dose, 1d): 24.27; band intensity b1i0_51.7 ([2]; Low dose, 3d): 21.64; band intensity b1i0_51.7 ([2]; Low dose, 7d): 19.76; band intensity b1i0_54.5 ([3]; High dose, 1d): 112.4; band intensity b1i0_54.5 ([3]; High dose, 3d): 112.1; band intensity b1i0_54.5 ([3]; Low dose, 1d): 102.8; band intensity b1i0_54.5 ([3]; Low dose, 3d): 103.6; band intensity b1i0_54.5 ([3]; Low dose, 7d): 108.2; band intensity b1i0_53.0 ([4]; High dose, 1d): 110.8; band intensity b1i0_53.0 ([4]; High dose, 3d): 118.4; band intensity b1i0_53.0 ([4]; Low dose, 1d): 117.1; band intensity b1i0_53.0 ([4]; Low dose, 3d): 98.96; band intensity b1i0_53.0 ([4]; Low dose, 7d): 104.2; band intensity b1i0_63.7 ([5]; High dose, 1d): 98.18; band intensity b1i0_63.7 ([5]; High dose, 3d): 115.1; band intensity b1i0_63.7 ([5]; Low dose, 1d): 155.4; band intensity b1i0_63.7 ([5]; Low dose, 3d): 104.2; band intensity b1i0_63.7 ([5]; Low dose, 7d): 204.2; band intensity b1i0_60.7 ([6]; High dose, 1d): 78.55; band intensity b1i0_60.7 ([6]; High dose, 3d): 115.4; band intensity b1i0_60.7 ([6]; Low dose, 1d): 88.97; band intensity b1i0_60.7 ([6]; Low dose, 3d): 80.09; band intensity b1i0_60.7 ([6]; Low dose, 7d): 96.79; band intensity b1i0_62.5 ([7]; High dose, 1d): 67.75; band intensity b1i0_62.5 ([7]; High dose, 3d): 84.85; band intensity b1i0_62.5 ([7]; Low dose, 1d): 69.48; band intensity b1i0_62.5 ([7]; Low dose, 3d): 57.9; band intensity b1i0_62.5 ([7]; Low dose, 7d): 82.58; band intensity b1i0_57.4 ([8]; High dose, 1d): 1154; band intensity b1i0_57.4 ([8]; High dose, 3d): 1296; band intensity b1i0_57.4 ([8]; Low dose, 1d): 1235; band intensity b1i0_57.4 ([8]; Low dose, 3d): 1367; band intensity b1i0_57.4 ([8]; Low dose, 7d): 1345
